Test results taken from the supplement of paper PMC10307832.

How the values were obtained:
Test in all cases: relative viability (nuclei count vs DMSO), 5 days (fraction); higher = more cells survive
Halofuginone + Lapatinib = compound: O=C(C[C@H]1NCCC[C@@H]1O)Cn1cnc2cc(Br)c(Cl)cc2c1=O (racemic) [Halofuginone] + CS(=O)(=O)CCNCc1ccc(-c2ccc3ncnc(Nc4ccc(OCc5cccc(F)c5)c(Cl)c4)c3c2)o1 [Lapatinib] (partner 2 µM)
In short: (§1)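 Relative viability was taken as the ratio of nuclei in treated wells to nuclei in vehicle wells. Lung cancer cell lines in 1536-well plates received compounds by pin tool one day after seeding, either one drug alone or a fixed anchor-drug dose plus five library-drug doses (not always all listed) in √10 steps. Nuclei were counted on 4× images after 5 days of treatment, and values are medians of duplicate plates.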

[1] = compound: O=C(C[C@H]1NCCC[C@@H]1O)Cn1cnc2cc(Br)c(Cl)cc2c1=O (racemic) [Halofuginone] + CS(=O)(=O)N1CCN(Cc2cc3nc(-c4cccc5[nH]ncc45)nc(N4CCOCC4)c3s2)CC1 [Pictilisib] (partner 1 µM)
In short: as §1

[2] = compound: O=C(C[C@H]1NCCC[C@@H]1O)Cn1cnc2cc(Br)c(Cl)cc2c1=O (racemic) [Halofuginone] + Cc1cc(Nc2cc(N3CCN(C)CC3)nc(Sc3ccc(NC(=O)C4CC4)cc3)n2)n[nH]1 [Tozasertib] (partner 0.1 µM)
In short: as §1

[3] = compound: O=C(C[C@H]1NCCC[C@@H]1O)Cn1cnc2cc(Br)c(Cl)cc2c1=O (racemic) [Halofuginone] + N=C(N)NC(=N)NCCc1ccccc1 [Phenformin] (partner 250 µM)
In short: as §1

Cell Line | relative viability (Halofuginone + Lapatinib; first compound 0.001 µM) | relative viability (Halofuginone + Lapatinib; first compound 0.003162 µM) | relative viability (Halofuginone + Lapatinib; first compound 0.03162 µM) | relative viability (Halofuginone + Lapatinib; first compound 0.1 µM) | relative viability ([1]; first compound 0.001 µM) | relative viability ([1]; first compound 0.003162 µM) | relative viability ([1]; first compound 0.03162 µM) | relative viability ([1]; first compound 0.1 µM) | relative viability ([2]; first compound 0.001 µM) | relative viability ([2]; first compound 0.003162 µM) | relative viability ([2]; first compound 0.01 µM) | relative viability ([2]; first compound 0.03162 µM) | relative viability ([2]; first compound 0.1 µM) | relative viability ([3]; first compound 0.001 µM) | relative viability ([3]; first compound 0.003162 µM) | relative viability ([3]; first compound 0.01 µM) | relative viability ([3]; first compound 0.03162 µM) | relative viability ([3]; first compound 0.1 µM) | relative viability (Halofuginone + Lapatinib; first compound 0.01 µM) | relative viability ([1]; first compound 0.01 µM)
CAL-12T | 0.765 | 0.609 | 0.729 | 0.561 | 0.691 | 0.277 | 0.468 | 0.323 | 0.354 | 0.279 | 0.352 | 0.305 | 0.262 | 0.582 | 0.592 | 0.555 | 0.603 | 0.509 | – | –
NCI-H3122 | 1.02 | 1.05 | 0.987 | 1.04 | 0.58 | 0.581 | 0.67 | 0.494 | 0.38 | 0.381 | 0.356 | 0.414 | 0.166 | 0.379 | 0.37 | 0.356 | 0.355 | 0.383 | 0.975 | 0.538
NCI-H1395 | 1.02 | 0.873 | 0.891 | 0.71 | 0.625 | 0.674 | 0.578 | 0.54 | 0.893 | 0.72 | 0.797 | 0.769 | 0.656 | 0.457 | 0.464 | 0.442 | 0.444 | 0.334 | 1.04 | 0.86
PC-14 | 0.325 | 0.311 | 0.419 | 0.313 | 0.573 | 0.635 | 0.262 | 0.037 | 0.701 | 0.626 | 0.495 | 0.529 | 0.208 | 0.563 | 0.553 | 0.565 | 0.606 | 0.281 | 0.343 | 0.5
BEN | 0.782 | 0.881 | 0.588 | 0.443 | 0.52 | 0.587 | 0.594 | 0.425 | 0.535 | 0.528 | 0.456 | 0.511 | 0.482 | 0.263 | 0.263 | 0.26 | 0.285 | 0.237 | 0.861 | 0.547
EPLC-272H | 0.891 | 0.851 | 0.958 | 0.907 | 0.324 | 0.306 | 0.352 | 0.325 | 0.241 | 0.333 | 0.318 | 0.279 | 0.247 | 0.314 | 0.267 | 0.311 | 0.312 | 0.286 | 0.976 | 0.338
LK-2 | 1.01 | 0.801 | 0.891 | 0.778 | 0.577 | 0.792 | 0.664 | 0.532 | 0.163 | 0.164 | 0.184 | 0.16 | 0.181 | 0.627 | 0.598 | 0.404 | 0.372 | 0.221 | 0.951 | 0.531
HCC-827 | 0.192 | 0.189 | 0.233 | 0.202 | 0.874 | 1.05 | 1.08 | 0.777 | 0.419 | 0.39 | 0.427 | 0.398 | 0.456 | 0.407 | 0.426 | 0.373 | 0.434 | 0.38 | 0.236 | 0.962
NCI-H1993 | 0.792 | 0.86 | 0.789 | 0.823 | 0.788 | 0.749 | 0.807 | 0.803 | 0.56 | 0.52 | 0.565 | 0.545 | 0.532 | 0.436 | 0.554 | 0.448 | 0.535 | 0.577 | 0.862 | 0.891
NCI-H647 | 1.14 | 1.07 | 1.02 | 0.533 | 0.543 | 0.425 | 0.418 | 0.33 | 0.441 | 0.324 | 0.267 | 0.171 | 0.0868 | 0.659 | 0.642 | 0.544 | 0.368 | 0.195 | 1.04 | 0.459
NCI-H460 | 0.948 | 1.27 | 0.573 | 0.11 | 0.393 | 0.345 | 0.345 | 0.299 | 0.611 | 0.572 | 0.438 | 0.444 | 0.19 | 0.512 | 0.549 | 0.543 | 0.493 | 0.126 | 0.967 | 0.336
EMC-BAC-2 | 0.952 | 0.888 | 0.89 | 0.807 | 0.491 | 0.55 | 0.54 | 0.46 | 0.329 | 0.248 | 0.276 | 0.242 | 0.162 | 0.615 | 0.546 | 0.503 | 0.521 | 0.338 | 0.86 | 0.489
NCI-H23 | 1.28 | 1.03 | 0.713 | 0.707 | 0.507 | 0.518 | 0.415 | 0.296 | 0.387 | 0.399 | 0.383 | 0.387 | 0.265 | 0.774 | 0.762 | 0.757 | 0.806 | 0.669 | 1.2 | 0.47
NCI-H1793 | 0.775 | 0.832 | 0.811 | 0.589 | 0.329 | 0.216 | 0.381 | 0.228 | 0.418 | 0.359 | 0.276 | 0.34 | 0.226 | 0.438 | 0.388 | 0.429 | 0.328 | 0.332 | 0.707 | 0.33
A-427 | 1.08 | 0.977 | 1.07 | 1.07 | 0.683 | 0.749 | 0.756 | 0.66 | 0.186 | 0.225 | 0.224 | 0.198 | 0.192 | 0.304 | 0.346 | 0.326 | 0.293 | 0.272 | 1.01 | 0.73
ABC-1 | 1.22 | 1.32 | 1.06 | 0.912 | 0.415 | 0.922 | 0.728 | 0.51 | 0.141 | 0.142 | 0.162 | 0.189 | 0.158 | 0.27 | 0.223 | 0.24 | 0.234 | 0.209 | 1.1 | 0.836
